# Assay results: patent US10765114B2, “4-amino-6-(pyridyl and 2-substitutedphenyl)-picolinates and 6-amino-2-(pyridyl and 2-substitutedphenyl)-pyrimidine-4-carboxylates and their use as herbicides” (Dow AgroSciences LLC, priority 2013, dated 2020)
# Tested on: Key Broadleaf Weed and Crop Species
# Assay: Post-Emergent Test II (Table 5)
# Type: in vivo
# Conditions: Abutilon theophrasti, post-emergence, 336 h, ABUTH: velvetleaf (Abutilon theophrasti), application rate 70 (kg ai/ha; footnote: g ai/ha), read-out: Visual Growth Reduction (%) 14 Days After Application ABUTH
# In short: (§1)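 Growth stage at treatment: first or second true leaf. Application: compound in acetone/DMSO diluted into an adjuvant-containing aqueous mix, sprayed at 187 L/ha at several rates. Assessment: visual 0-100% injury at 14 days against untreated plants.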
row,Compound,pest or weed control at 70 g/ha
1,"COC(=O)c1nc(-c2ccc(Cl)c(F)c2OC)nc(N)c1OC [Compound 70, Methyl 6-amino-2-(4-chloro-3-fluoro-2-methoxyphenyl)-5-methoxypyrimidine-4-carboxylate]",85 to 94%

# Same assay, conditions: Abutilon theophrasti, post-emergence, 336 h, ABUTH: velvetleaf (Abutilon theophrasti), application rate 140 (kg ai/ha; footnote: g ai/ha), read-out: Visual Growth Reduction (%) 14 Days After Application ABUTH
row,Compound,pest or weed control at 140 g/ha
1,"COC(=O)c1nc(-c2ccc(Cl)c(F)c2OC)nc(N)c1OC [Compound 70, Methyl 6-amino-2-(4-chloro-3-fluoro-2-methoxyphenyl)-5-methoxypyrimidine-4-carboxylate]",60 to 74%

# Same assay, conditions: Amaranthus retroflexus, post-emergence, 336 h, AMARE: redroot pigweed (Amaranthus retroflexus), application rate 70 (kg ai/ha; footnote: g ai/ha), read-out: Visual Growth Reduction (%) 14 Days After Application AMARE
row,Compound,pest or weed control at 70 g/ha
1,"COC(=O)c1nc(-c2ccc(Cl)c(F)c2OC)nc(N)c1OC [Compound 70, Methyl 6-amino-2-(4-chloro-3-fluoro-2-methoxyphenyl)-5-methoxypyrimidine-4-carboxylate]",95 to 100%

# Same assay, conditions: Amaranthus retroflexus, post-emergence, 336 h, AMARE: redroot pigweed (Amaranthus retroflexus), application rate 140 (kg ai/ha; footnote: g ai/ha), read-out: Visual Growth Reduction (%) 14 Days After Application AMARE
row,Compound,pest or weed control at 140 g/ha
1,"COC(=O)c1nc(-c2ccc(Cl)c(F)c2OC)nc(N)c1OC [Compound 70, Methyl 6-amino-2-(4-chloro-3-fluoro-2-methoxyphenyl)-5-methoxypyrimidine-4-carboxylate]",95 to 100%

# Same assay, conditions: Brassica napus, post-emergence, 336 h, BRSSS: oilseed rape, canola (Brassica napus), application rate 70 (kg ai/ha; footnote: g ai/ha), read-out: Visual Growth Reduction (%) 14 Days After Application BRSSS
row,Compound,pest or weed control at 70 g/ha
1,"COC(=O)c1nc(-c2ccc(Cl)c(F)c2OC)nc(N)c1OC [Compound 70, Methyl 6-amino-2-(4-chloro-3-fluoro-2-methoxyphenyl)-5-methoxypyrimidine-4-carboxylate]",95 to 100%

# Same assay, conditions: Brassica napus, post-emergence, 336 h, BRSSS: oilseed rape, canola (Brassica napus), application rate 140 (kg ai/ha; footnote: g ai/ha), read-out: Visual Growth Reduction (%) 14 Days After Application BRSSS
row,Compound,pest or weed control at 140 g/ha
1,"COC(=O)c1nc(-c2ccc(Cl)c(F)c2OC)nc(N)c1OC [Compound 70, Methyl 6-amino-2-(4-chloro-3-fluoro-2-methoxyphenyl)-5-methoxypyrimidine-4-carboxylate]",95 to 100%

# Same assay, conditions: Chenopodium album, post-emergence, 336 h, CHEAL: lambsquarters (Chenopodium album), application rate 70 (kg ai/ha; footnote: g ai/ha), read-out: Visual Growth Reduction (%) 14 Days After Application CHEAL
row,Compound,pest or weed control at 70 g/ha
1,"COC(=O)c1nc(-c2ccc(Cl)c(F)c2OC)nc(N)c1OC [Compound 70, Methyl 6-amino-2-(4-chloro-3-fluoro-2-methoxyphenyl)-5-methoxypyrimidine-4-carboxylate]",95 to 100%

# Same assay, conditions: Chenopodium album, post-emergence, 336 h, CHEAL: lambsquarters (Chenopodium album), application rate 140 (kg ai/ha; footnote: g ai/ha), read-out: Visual Growth Reduction (%) 14 Days After Application CHEAL
row,Compound,pest or weed control at 140 g/ha
1,"COC(=O)c1nc(-c2ccc(Cl)c(F)c2OC)nc(N)c1OC [Compound 70, Methyl 6-amino-2-(4-chloro-3-fluoro-2-methoxyphenyl)-5-methoxypyrimidine-4-carboxylate]",95 to 100%

# Same assay, conditions: Euphorbia heterophylla, post-emergence, 336 h, EPHHL: wild poinsettia (Euphorbia heterophylla), application rate 70 (kg ai/ha; footnote: g ai/ha), read-out: Visual Growth Reduction (%) 14 Days After Application EPHHL
row,Compound,pest or weed control at 70 g/ha
1,"COC(=O)c1nc(-c2ccc(Cl)c(F)c2OC)nc(N)c1OC [Compound 70, Methyl 6-amino-2-(4-chloro-3-fluoro-2-methoxyphenyl)-5-methoxypyrimidine-4-carboxylate]",0 to 29%

# Same assay, conditions: Euphorbia heterophylla, post-emergence, 336 h, EPHHL: wild poinsettia (Euphorbia heterophylla), application rate 140 (kg ai/ha; footnote: g ai/ha), read-out: Visual Growth Reduction (%) 14 Days After Application EPHHL
row,Compound,pest or weed control at 140 g/ha
1,"COC(=O)c1nc(-c2ccc(Cl)c(F)c2OC)nc(N)c1OC [Compound 70, Methyl 6-amino-2-(4-chloro-3-fluoro-2-methoxyphenyl)-5-methoxypyrimidine-4-carboxylate]",0 to 29%

# Same assay, conditions: Helianthus annuus, post-emergence, 336 h, HELAN: sunflower (Helianthus annuus), application rate 70 (kg ai/ha; footnote: g ai/ha), read-out: Visual Growth Reduction (%) 14 Days After Application HELAN
row,Compound,pest or weed control at 70 g/ha
1,"COC(=O)c1nc(-c2ccc(Cl)c(F)c2OC)nc(N)c1OC [Compound 70, Methyl 6-amino-2-(4-chloro-3-fluoro-2-methoxyphenyl)-5-methoxypyrimidine-4-carboxylate]",95 to 100%

# Same assay, conditions: Helianthus annuus, post-emergence, 336 h, HELAN: sunflower (Helianthus annuus), application rate 140 (kg ai/ha; footnote: g ai/ha), read-out: Visual Growth Reduction (%) 14 Days After Application HELAN
row,Compound,pest or weed control at 140 g/ha
1,"COC(=O)c1nc(-c2ccc(Cl)c(F)c2OC)nc(N)c1OC [Compound 70, Methyl 6-amino-2-(4-chloro-3-fluoro-2-methoxyphenyl)-5-methoxypyrimidine-4-carboxylate]",95 to 100%

# Same assay, conditions: Viola tricolor, post-emergence, 336 h, VIOTR: wild pansy (Viola tricolor), application rate 70 (kg ai/ha; footnote: g ai/ha), read-out: Visual Growth Reduction (%) 14 Days After Application VIOTR
row,Compound,pest or weed control at 70 g/ha
1,"COC(=O)c1nc(-c2ccc(Cl)c(F)c2OC)nc(N)c1OC [Compound 70, Methyl 6-amino-2-(4-chloro-3-fluoro-2-methoxyphenyl)-5-methoxypyrimidine-4-carboxylate]",0 to 29%

# Same assay, conditions: Viola tricolor, post-emergence, 336 h, VIOTR: wild pansy (Viola tricolor), application rate 140 (kg ai/ha; footnote: g ai/ha), read-out: Visual Growth Reduction (%) 14 Days After Application VIOTR
row,Compound,pest or weed control at 140 g/ha
1,"COC(=O)c1nc(-c2ccc(Cl)c(F)c2OC)nc(N)c1OC [Compound 70, Methyl 6-amino-2-(4-chloro-3-fluoro-2-methoxyphenyl)-5-methoxypyrimidine-4-carboxylate]",0 to 29%

# Tested on: Key Grass and Sedge Weeds as well as Grass Crops
# Assay: Post-Emergent Test II (Table 6)
# Type: in vivo
# Conditions: post-emergence, 336 h, CYPSS, 70 g ai/ha, 14 days after application, read-out: Visual Growth Reduction (%) 14 Days After Application CYPSS
# In short: as §1
row,Compound,pest or weed control at 70 g/ha
1,"COC(=O)c1nc(-c2ccc(Cl)c(F)c2OC)nc(N)c1OC [Compound 70, Methyl 6-amino-2-(4-chloro-3-fluoro-2-methoxyphenyl)-5-methoxypyrimidine-4-carboxylate]",0 to 29%

# Same assay, conditions: post-emergence, 336 h, CYPSS, 140 g ai/ha, 14 days after application, read-out: Visual Growth Reduction (%) 14 Days After Application CYPSS
row,Compound,pest or weed control at 140 g/ha
1,"COC(=O)c1nc(-c2ccc(Cl)c(F)c2OC)nc(N)c1OC [Compound 70, Methyl 6-amino-2-(4-chloro-3-fluoro-2-methoxyphenyl)-5-methoxypyrimidine-4-carboxylate]",0 to 29%

# Same assay, conditions: post-emergence, 336 h, DIGSA: crabgrass (Digitaria sanguinalis), 70 g ai/ha, 14 days after application, read-out: Visual Growth Reduction (%) 14 Days After Application DIGSA
row,Compound,pest or weed control at 70 g/ha
1,"COC(=O)c1nc(-c2ccc(Cl)c(F)c2OC)nc(N)c1OC [Compound 70, Methyl 6-amino-2-(4-chloro-3-fluoro-2-methoxyphenyl)-5-methoxypyrimidine-4-carboxylate]",0 to 29%

# Same assay, conditions: post-emergence, 336 h, DIGSA: crabgrass (Digitaria sanguinalis), 140 g ai/ha, 14 days after application, read-out: Visual Growth Reduction (%) 14 Days After Application DIGSA
row,Compound,pest or weed control at 140 g/ha
1,"COC(=O)c1nc(-c2ccc(Cl)c(F)c2OC)nc(N)c1OC [Compound 70, Methyl 6-amino-2-(4-chloro-3-fluoro-2-methoxyphenyl)-5-methoxypyrimidine-4-carboxylate]",0 to 29%

# Same assay, conditions: post-emergence, 336 h, ECHSS, 70 g ai/ha, 14 days after application, read-out: Visual Growth Reduction (%) 14 Days After Application ECHSS
row,Compound,pest or weed control at 70 g/ha
1,"COC(=O)c1nc(-c2ccc(Cl)c(F)c2OC)nc(N)c1OC [Compound 70, Methyl 6-amino-2-(4-chloro-3-fluoro-2-methoxyphenyl)-5-methoxypyrimidine-4-carboxylate]",0 to 29%

# Same assay, conditions: post-emergence, 336 h, ECHSS, 140 g ai/ha, 14 days after application, read-out: Visual Growth Reduction (%) 14 Days After Application ECHSS
row,Compound,pest or weed control at 140 g/ha
1,"COC(=O)c1nc(-c2ccc(Cl)c(F)c2OC)nc(N)c1OC [Compound 70, Methyl 6-amino-2-(4-chloro-3-fluoro-2-methoxyphenyl)-5-methoxypyrimidine-4-carboxylate]",0 to 29%

# Same assay, conditions: post-emergence, 336 h, ORYSS (crop), 70 g ai/ha, 14 days after application, read-out: Visual Growth Reduction (%) 14 Days After Application ORYSS
row,Compound,pest or weed control at 70 g/ha
1,"COC(=O)c1nc(-c2ccc(Cl)c(F)c2OC)nc(N)c1OC [Compound 70, Methyl 6-amino-2-(4-chloro-3-fluoro-2-methoxyphenyl)-5-methoxypyrimidine-4-carboxylate]",0 to 29%

# Same assay, conditions: post-emergence, 336 h, ORYSS (crop), 140 g ai/ha, 14 days after application, read-out: Visual Growth Reduction (%) 14 Days After Application ORYSS
row,Compound,pest or weed control at 140 g/ha
1,"COC(=O)c1nc(-c2ccc(Cl)c(F)c2OC)nc(N)c1OC [Compound 70, Methyl 6-amino-2-(4-chloro-3-fluoro-2-methoxyphenyl)-5-methoxypyrimidine-4-carboxylate]",0 to 29%

# Same assay, conditions: post-emergence, 336 h, SETFA: giant foxtail (Setaria faberi), 70 g ai/ha, 14 days after application, read-out: Visual Growth Reduction (%) 14 Days After Application SETFA
row,Compound,pest or weed control at 70 g/ha
1,"COC(=O)c1nc(-c2ccc(Cl)c(F)c2OC)nc(N)c1OC [Compound 70, Methyl 6-amino-2-(4-chloro-3-fluoro-2-methoxyphenyl)-5-methoxypyrimidine-4-carboxylate]",0 to 29%

# Same assay, conditions: post-emergence, 336 h, SETFA: giant foxtail (Setaria faberi), 140 g ai/ha, 14 days after application, read-out: Visual Growth Reduction (%) 14 Days After Application SETFA
row,Compound,pest or weed control at 140 g/ha
1,"COC(=O)c1nc(-c2ccc(Cl)c(F)c2OC)nc(N)c1OC [Compound 70, Methyl 6-amino-2-(4-chloro-3-fluoro-2-methoxyphenyl)-5-methoxypyrimidine-4-carboxylate]",0 to 29%

# Same assay, conditions: post-emergence, 336 h, SORVU: grain sorghum (Sorghum vulgare), 70 g ai/ha, 14 days after application, read-out: Visual Growth Reduction (%) 14 Days After Application SORVU
row,Compound,pest or weed control at 70 g/ha
1,"COC(=O)c1nc(-c2ccc(Cl)c(F)c2OC)nc(N)c1OC [Compound 70, Methyl 6-amino-2-(4-chloro-3-fluoro-2-methoxyphenyl)-5-methoxypyrimidine-4-carboxylate]",0 to 29%

# Same assay, conditions: post-emergence, 336 h, SORVU: grain sorghum (Sorghum vulgare), 140 g ai/ha, 14 days after application, read-out: Visual Growth Reduction (%) 14 Days After Application SORVU
row,Compound,pest or weed control at 140 g/ha
1,"COC(=O)c1nc(-c2ccc(Cl)c(F)c2OC)nc(N)c1OC [Compound 70, Methyl 6-amino-2-(4-chloro-3-fluoro-2-methoxyphenyl)-5-methoxypyrimidine-4-carboxylate]",0 to 29%

# Same assay, conditions: post-emergence, 336 h, TRZSS (crop), 70 g ai/ha, 14 days after application, read-out: Visual Growth Reduction (%) 14 Days After Application TRZSS
row,Compound,pest or weed control at 70 g/ha
1,"COC(=O)c1nc(-c2ccc(Cl)c(F)c2OC)nc(N)c1OC [Compound 70, Methyl 6-amino-2-(4-chloro-3-fluoro-2-methoxyphenyl)-5-methoxypyrimidine-4-carboxylate]",0 to 29%

# Same assay, conditions: post-emergence, 336 h, TRZSS (crop), 140 g ai/ha, 14 days after application, read-out: Visual Growth Reduction (%) 14 Days After Application TRZSS
row,Compound,pest or weed control at 140 g/ha
1,"COC(=O)c1nc(-c2ccc(Cl)c(F)c2OC)nc(N)c1OC [Compound 70, Methyl 6-amino-2-(4-chloro-3-fluoro-2-methoxyphenyl)-5-methoxypyrimidine-4-carboxylate]",0 to 29%

# Same assay, conditions: post-emergence, 336 h, ZEAMX: maize, corn (Zea mays), 70 g ai/ha, 14 days after application, read-out: Visual Growth Reduction (%) 14 Days After Application ZEAMX
row,Compound,pest or weed control at 70 g/ha
1,"COC(=O)c1nc(-c2ccc(Cl)c(F)c2OC)nc(N)c1OC [Compound 70, Methyl 6-amino-2-(4-chloro-3-fluoro-2-methoxyphenyl)-5-methoxypyrimidine-4-carboxylate]",0 to 29%

# Same assay, conditions: post-emergence, 336 h, ZEAMX: maize, corn (Zea mays), 140 g ai/ha, 14 days after application, read-out: Visual Growth Reduction (%) 14 Days After Application ZEAMX
row,Compound,pest or weed control at 140 g/ha
1,"COC(=O)c1nc(-c2ccc(Cl)c(F)c2OC)nc(N)c1OC [Compound 70, Methyl 6-amino-2-(4-chloro-3-fluoro-2-methoxyphenyl)-5-methoxypyrimidine-4-carboxylate]",0 to 29%

# Tested on: not given
# Assay: not given
# Conditions: not given
row,melting point,Compound
1,60 to 61 °C,"COC(=O)c1nc(-c2ccc(Cl)c(F)c2OC)nc(N)c1OC [Compound 70, Methyl 6-amino-2-(4-chloro-3-fluoro-2-methoxyphenyl)-5-methoxypyrimidine-4-carboxylate]"
